The text below walks through data of publication PMC6259458, “Investigating the Spectrum of Biological Activity of Ring-Substituted Salicylanilides and Carbamoylphenylcarbamates” (Molecules, 2010).

≈ marks a conversion by molar mass, not a printed value. Where “and” joins values, the source holds several entries; their conditions need not be identical. Equal values may be shown once. Read-outs that look alike come from different tables or passages of the source.

The nature of data set [1]: Lipophilicity determination by RP-HPLC (capacity factor k / log k). Format: physicochemical. The following applies: C18 column, MeOH 70% / H2O 30%, isocratic. As for the experimental part: Hydrophobicities (log P/Clog P) of the compounds 1-5 and 8-14 were calculated using two commercially available programs (ChemDraw Ultra 10.0 and ACD/LogP) and also measured by means of the RP-HPLC determination of capacity factors k with subsequent calculation of log k. The procedure was performed under isocratic conditions with methanol as an organic modifier in the mobile phase using an end-capped non-polar C18 stationary RP column. The results are shown in Table 1 and illustrated in Figure 1.
A Waters Alliance 2695 XE HPLC separation module and a Waters Photodiode Array Detector 2996 (Waters Corp., Milford, MA, USA) were used. A Symmetry® C18 5 μm, 4.6 × 250 mm, Part No. WAT054275 (Waters Corp., Milford, MA, USA) chromatographic column was used. The HPLC separation process was monitored by Empower™ 2 Chromatography Data Software, Waters 2009 (Waters Corp., Milford, MA, USA). A mixture of MeOH p.a. (70%) and H2O-HPLC – Mili-Q Grade (30%) was used as a mobile phase. The total flow of the column was 1.0 mL/min, injection volume 30 μL, column temperature 30 °C and sample temperature 10°C. The detection wavelength of 210 nm was chosen. The KI methanolic solution was used for the dead time (tD) determination. Retention times (tR) were measured in minutes. The capacity factors k were calculated using the Empower™ 2 Chromatography Data Software according to formula k = (tR - tD)/tD, where tR is the retention time of the solute, whereas tD denotes the dead time obtained using an unretained analyte. Log k, calculated from the capacity factor k, is used as the lipophilicity index converted to log P scale.

In data set [2] the test system is methicilin resistant Staphylococcus aureus H 5996/08. Put plainly: In vitro anti-bacterial susceptibility, Mueller-Hinton broth. It counts as cell-based. The following applies: MRSA, methicillin-resistant Staphylococcus aureus, MIC = IC90 value, NA = no significant activity.
For another data set, the system named is M. kansasii CIT11/06. Put plainly: In vitro anti-mycobacterial evaluation, alamarBlue. The following applies: 5 days, NA = no significant activity. For orientation: Resazurin is reduced to fluorescent resorufin, in cell work by metabolically active cells.
Details of data set [3]: method as in PMID 1151976. The conditions noted are these: parameter of the substituents in the anilide part; cited from earlier work.
Data set [4] has as its system Mycobacterium avium complex CIT19/06. Put plainly: In vitro anti-mycobacterial evaluation, alamarBlue. The following applies: 5 days, NA = no significant activity.
The subject of another data set is Absidia corymbifera 272. Put plainly: In vitro anti-fungal susceptibility, broth microdilution. Format: cell-based. How it is done: (§1) The broth microdilution test was used for the assessment of in vitro anti-fungal activity of the synthesized compounds against Absidia corymbifera 272 (AC) and Trichophyton mentagrophytes 445 (TM). Fluconazole (FLU) was used as the standard since it is a clinically used anti-mycotic drug. The procedure was performed with a two-fold dilution of the compounds in […]., Prague, Czech Republic) buffered to pH 7.0 with 0.165 mol of 3-morpholino-propane-1-sulfonic acid (MOPS, Sigma, Germany). […] Drug-free controls were included. […] The values of the minimum inhibitory concentration (MICs) were determined after 24 and 48 h of static incubation at 35 °C. For T. mentagrophytes, the final MICs were determined after 72 and 120 h of incubation.
(In general: Broth dilution looks for growth in wells or tubes with falling amounts of substance.)

Data set [5] concerns Trichophyton mentagrophytes 445. The description is as above. It counts as cell-based. The following applies: MIC = IC50 value, NA = no significant activity. How it is done:
as §1

Data set [6] deals with photosynthetic electron transport (PET) in spinach chloroplasts. Put plainly: Inhibition of photosynthetic electron transport (PET) in spinach chloroplasts, DCPIP photoreduction. It counts as biochemical, Spinacia oleracea L. The following applies: DCPIP photoreduction, pH 7.2. As for the experimental part: Chloroplasts were prepared from spinach (Spinacia oleracea L.) according to Masarovicova and Kralova. The inhibition of photosynthetic electron transport (PET) in spinach chloroplasts was determined spectrophotometrically (Genesys 6, Thermo Scientific, USA), using an artificial electron acceptor 2,6-dichlorophenol-indophenol (DCIPP) according to Kralova et al., and the rate of photosynthetic electron transport was monitored as a photoreduction of DCPIP. The measurements were carried out in phosphate buffer (0.02 mol/L, pH 7.2) containing sucrose (0.4 mol/L), MgCl2 (0.005 mol/L) and NaCl (0.015 mol/L). The chlorophyll content was 30 mg/L in these experiments and the samples were irradiated (~100 W/m^2) from 10 cm distance with a halogen lamp (250 W) using a 4 cm water filter to prevent warming of the samples (suspension temperature 22 °C). The studied compounds were dissolved in DMSO due to their limited water solubility.

In data set [7] the test system is Staphylococcus epidermidis H 6966/08. Put plainly: In vitro anti-bacterial susceptibility, Mueller-Hinton broth. The following applies: MIC = IC90 value, NA = no significant activity. Format: cell-based.
The subject of data set [8] is M. avium paratuberculosis ATCC19698. Put plainly: In vitro anti-mycobacterial evaluation, alamarBlue. Format: cell-based. The conditions noted are these: 7 days, NA = no significant activity.
The test system of data set [9] is photosynthetic apparatus of spinach chloroplasts (PS 2 / PS 1). Put plainly: Site of action: restoration of PET by artificial electron donors (DPC, DCPIPH2). Format: biochemical, Spinacia oleracea L. How it is done: To further determine the site of action of the studied compounds, experiments with 1,5-diphenylcarbazide (DPC) were performed. DPC is an artificial electron donor for PS 2 with a known site of action in the Z^•/D^• intermediate. The site of action of the artificial electron acceptor 2,6-dichlorophenol-indophenol (DCPIP) used for monitoring the Hill reaction is plastoquinone on the acceptor side of PS 2 [51]. Thus, if the part of the photosynthetic electron transport chain between manganese cluster and Z/D is inhibited, then DPC will restore PET through PS 2.

The test system of data set [10] is photosynthetic apparatus of spinach chloroplasts. Put plainly: EPR spectra of treated spinach chloroplasts. Format: biochemical, Spinacia oleracea L. The following applies: 0.05 M of compound, under irradiation, versus untreated chloroplasts. As for the experimental part: Experiments were then performed to determine the site of action of the studied compounds in the photosynthetic apparatus. In Figure 2, EPR spectra of untreated chloroplasts and those treated with the very effective PET inhibitor, compound 3 (Table 2), are presented. The EPR spectrum of untreated chloroplasts recorded in the dark consists of the typical signal IIslow (g = 2.0046, ΔBpp= 2 mT, see Figure 2A - full line). An increase of EPR signal intensity in the light represents signal IIvery fast (g = 2.0046, ΔBpp= 2 mT; in Figure 2A it is the difference between dotted and full lines). These EPR signals belong to the intermediates D^• and Z^• respectively, which are tyrosine radicals situated in the 161st positions in D2 (for D) and D1 (for Z) proteins at the donor side of PS 2 [48, 49]. […]
EPR spectra were registered by the equipment ERS 230 (ZWG, Acad. Sci., Berlin, Germany), which operates in X-band (~9.3 GHz), with modulation amplitude 0.5 mT and microwave power 5 mW at room temperature. The samples containing chlorophyll (3.2 g/L) were measured in a flat quartz cell and their irradiation (~400 μE/m^2s PAR) was carried out directly in the resonance cavity with a 250 W halogen lamp from 0.5 m distance through 5 cm water filter.

Data set [11] relates to photosynthetic electron transport (PET) in spinach chloroplasts. Further details: method as in earlier work. The conditions noted are these: standard, read-out: PET inhibition IC50; cited from earlier work.
In data set [12] the test system is human SK-N-MC neuroepithelioma cell line. Put plainly: In vitro anti-proliferative activity, MTT assay. Format: cell-based. The following applies: SK-N-MC cells, 72 h. As for the experimental part: Therefore, the anti-proliferative activity of compounds 1-5 was examined against the human SK-N-MC neuroepithelioma cell line to determine if there were any undesired cytotoxic side-effects. The SK-N-MC cell line was chosen as the effect of iron chelators on the proliferation of these cells has been extensively examined. The anti-proliferative activity of the evaluated compounds was assessed in comparison to the well-known clinically used iron chelator, desferrioxamine (DFO), and the highly cytotoxic chelator, di-2-pyridylketone 4,4-dimethyl-3-thiosemicarbazone (Dp44mT).
The human SK-N-MC neuroepithelioma cell type was obtained from the American Type Culture Collection (Manassas, VA, USA) and was cultured in minimum essential medium (MEM; Gibco, Melbourne, Australia) containing 10% (v/v) FBS, 1.0 mM sodium pyruvate (Gibco), 1% (v/v) non-essential amino acids (Gibco), 2 mM L-glutamine (Gibco), 100 U/mL penicillin (Gibco), streptomycin (Gibco) and 0.28 μg/mL fungizone (Squibb Pharmaceuticals, Montreal, Canada). […]
The effect of the compounds on cellular proliferation was determined by the MTT [1-(4,5-dimethylthiazol-2-yl)-2,5-diphenyl tetrazolium] assay using standard techniques. […] After solubilization of the cells with 100 μL of 10% SDS-50% isobutanol in 0.01 M HCl, the plates were read at 570 nm using a scanning multi-well spectrophotometer.
Background: Tetrazolium assays rely on reduction of a dye to a coloured formazan, in cell work by metabolically active cells.

Setting [13] is: Lichtheimia corymbifera, 272, 24 h, read-out: MIC AC 24 h.
The mark [14] stands for this setting: Lichtheimia corymbifera, 272, 48 h, read-out: MIC AC 48 h.
The mark [15] stands for this setting: H6966/08, 24 h, read-out: MIC SE 24 h.
Setting [16] is: H6966/08, 48 h, read-out: MIC SE 48 h.

Experimental for M. kansasii CIT11/06: Clinical isolates of Mycobacterium avium complex CIT19/06 (MAC), M. avium paratuberculosis ATCC19698 (MAP), and M. kansasii CIT11/06 (MK) were grown in Middlebrook broth (MB), supplemented with Oleic, Albumin, Dextrose, Catalase supplement (OADC, Becton Dickinson, UK). […] At log phase growth, culture (10 mL) was centrifuged at 15,000 rpm/20 min using a bench top centrifuge (Model CR 4-12 Jouan Inc., UK). Following removal of the supernatant, the pellet was washed in fresh Middlebrook 7H9GC broth and re-suspended in fresh supplemented MB (10 mL). The turbidity was adjusted to match McFarland standard No. 1 (3 × 10^8 cfu) with MB broth. A further 1:20 dilution of the culture was then performed in MB broth.
The anti-microbial susceptibility of all three mycobacterial species was investigated in a 96-well plate format. […] Each evaluated compound (100 µL) was incubated with each of the mycobacterial species (100 µL). […] Following incubation, a 10% addition of alamarBlue (AbD Serotec) was mixed into each well and readings at 570 nm and 600 nm were taken, initially for background subtraction and subsequently after 24 h re-incubation. […] For non-interfering compounds, a blue colour in the well was interpreted as an absence of growth and a pink colour was scored as growth. […]

The MIC is the least concentration at which growth counts as inhibited. The IC50 is the concentration that inhibits the measured activity by half. With `Cc1ccccc1NC(=O)c1ccccc1O` [Compound 1, 2-Hydroxy-N-(2-methylphenyl)benzamide], the log k in [1] was determined as 0.6661. In addition, the MIC worked out at 125 µM (≈ 28.4 µg/mL) in [2] (24 h, read-out: MIC MRSA 24 h); 250 µM (≈ 56.8 µg/mL) in [2] (48 h, read-out: MIC MRSA 48 h); 62.5 µM (≈ 14.2 µg/mL) in the data set with Absidia corymbifera 272 (setting [13]); 250 µM (≈ 56.8 µg/mL) in the data set with Absidia corymbifera 272 (setting [14]); 62.5 µM (≈ 14.2 µg/mL) in data set [5] (72 h, read-out: MIC TM 72 h); 125 µM (≈ 28.4 µg/mL) in data set [5] (120 h, read-out: MIC TM 120 h). Moreover, the MIC in data set [7] (setting [15]) amounted to 125 µM (≈ 28.4 µg/mL); in data set [7] (setting [16]) it was 250 µM (≈ 56.8 µg/mL). The “MIC/IC90 MK” value with M. kansasii CIT11/06 is given as 125 µg/mL (≈ 550 µM). Further, the “MR (bulk parameter, reflecting bulkiness)” value in [3] is listed as 4.7. In addition, the “σ (Hammett's parameter)” value in [3] is given as 0.10. Moreover, the “MIC/IC90 MAC” value in data set [4] was found to be 250 µg/mL (≈ 1100 µM). The concentration for half-maximal inhibition (IC50) in data set [6] turned out to be 2700 nM. For the same molecule, the “MIC/IC90 MAP” value in [8] is listed as 250 µg/mL (≈ 1100 µM).

In the case of `COc1ccccc1NC(=O)c1ccccc1O` [Compound 3, 2-Hydroxy-N-(2-methoxyphenyl)benzamide], the “restoration of PET through PS 1 after addition of DCPIPH2” value in [9] (DCPIPH2 40 μmol/L added to treated chloroplasts) is on record as “completely restored”. Besides, in data set [9] (DPC 2 mmol/L added to treated chloroplasts), the “restoration of PET through PS 2 after addition of DPC” value is “not restored”. In addition, the log k in [1] is on record as 0.6770. For the same molecule, the minimum inhibitory concentration (MIC) in data set [2] (24 h, read-out: MIC MRSA 24 h) is 500 µM (≈ 122 µg/mL); in data set [2] (48 h, read-out: MIC MRSA 48 h) it was greater than 500 µM; in the data set on Absidia corymbifera 272 (setting [13]), 125 µM (≈ 30.4 µg/mL); in the data set with Absidia corymbifera 272 (setting [14]), 125 µM (≈ 30.4 µg/mL); in data set [5] (72 h, read-out: MIC TM 72 h), 125 µM (≈ 30.4 µg/mL); in [5] (120 h, read-out: MIC TM 120 h) it was 125 µM (≈ 30.4 µg/mL). The minimal inhibitory concentration (MIC) in data set [7] (setting [15]) and in data set [7] (setting [16]) was greater than 500 µM in each case. The “MR (bulk parameter, reflecting bulkiness)” value in data set [3] is reported as 6.5. The “σ (Hammett's parameter)” value in [3] is 0.00. Besides, the “intensity of the EPR signal (signal I) in irradiated chloroplasts” value in data set [10] is reported as “marked increase”. In addition, it took 1600 nM to reach half-maximal inhibition in data set [6] (IC50).

Consider `CN(C)C(=O)Nc1ccc(Cl)c(Cl)c1` [DCMU, 3-(3,4-dichlorophenyl)-1,1-dimethylurea], for which, in [11], the IC50 is ~1900 nM and 1900 nM.

For `CC(=O)N(O)CCCCCNC(=O)CCC(=O)N(O)CCCCCNC(=O)CCC(=O)N(O)CCCCCN` [DFO, desferrioxamine], half-maximal inhibition in [12] (Homo sapiens) (IC50) required 17100 ± 3770 nM.

On to `CN(C)C(=S)NN=C(c1ccccn1)c1ccccn1` [Dp44mT, di-2-pyridylketone 4,4-dimethyl-3-thiosemicarbazone], for which half-maximal inhibition in data set [12] (IC50) required 10 ± 10 nM.

As to `NNC(=O)c1ccncc1` [INH, Isoniazid, reference compound], the “MIC/IC90 MK” value in the data set on M. kansasii CIT11/06 is less than 10 µg/mL. Besides, the “MIC/IC90 MAC” value in data set [4] was less than 10 µg/mL. Further, the “MIC/IC90 MAP” value in data set [8] is recorded as greater than 250 µg/mL.
